Source: patent publication US20060258729A1, “Antibacterial pyrazole carboxylic acid hydrazides” (priority 2002, published 2006)

Key:
[1] = target: T1, B. subtilis pol IIIC (Bacillus subtilis, UniProt P13267); test: DNA polymerase assay, B. subtilis pol IIIC; type: biochemical; conditions: 80 μg/mL (190-260 μM) final concentration; all four dNTPs
T1 construct: made in house
Description: Recombinant, purified pol IIIC and pol IIIE from Bacillus subtilis were obtained using known methods (Hammond et al., Gene 98: 29-36 (1991), regarding pol IIIC; Barnes et al., J. Bacteriol. 184, 3834-3838 (2002), regarding pol IIIE). Recombinant, purified pol IIIE from Escherichia coli was obtained from a commercial source (Enzyco, Denver, Colo.). The enzyme assays were performed in 96-well plate format using the same assay mix for all three enzymes. […] Dilutions of compounds were added to the plate in 1% DMSO (1 μL/well). Assays were initiated by the addition of 0.025 to 0.06 units of enzyme (1 unit is the amount required to incorporate 250 pmoles of [^3H] dTMP in a standard assay), incubated for 10 min at 30° C. and terminated by the addition of 200 μL of cold 10% trichloroacetic acid, 10 mM sodium pyrophosphate. Precipitated labeled DNA was collected on glass fiber filter plates that had been pre-wet with ice cold 1 M HCl, 100 mM sodium pyrophosphate. The plates were washed with the HCl solution followed by ice cold 90% ethanol and then dried and counted in a liquid scintillation counter. […] In addition, percent inhibition values are calculated as the percent reduction in the activity of a DMSO (diluent) control.

[2] = target: T2, B. subtilis pol IIIE (Bacillus subtilis, UniProt O34623); test: DNA polymerase assay, B. subtilis pol IIIE; type: biochemical; conditions: 80 μg/mL (190-260 μM) final concentration; all four dNTPs
T2 construct: made in house
Description: (§1) Recombinant, purified pol IIIC and pol IIIE from Bacillus subtilis were obtained using known methods (Hammond et al., Gene 98: 29-36 (1991), regarding pol IIIC; Barnes et al., J. Bacteriol. 184, 3834-3838 (2002), regarding pol IIIE). Recombinant, purified pol IIIE from Escherichia coli was obtained from a commercial source (Enzyco, Denver, Colo.). The enzyme assays were performed in 96-well plate format using the same assay mix for all three enzymes. Each 25 μL assay contained 30 mM Tris, pH 7.5, 10 mM magnesium acetate, 4 mM dithiothreitol, 20% glycerol, with 10 μM dATP, dCTP, dGTP and dTTP (3H-labelled at 1.44 Ci/mmole) and 0.4 mg/mL activated calf thymus DNA as substrates. Dilutions of compounds were added to the plate in 1% DMSO (1 μL/well). Assays were initiated by the addition of 0.025 to 0.06 units of enzyme (1 unit is the amount required to incorporate 250 pmoles of [^3H] dTMP in a standard assay), incubated for 10 min at 30° C. and terminated by the addition of 200 μL of cold 10% trichloroacetic acid, 10 mM sodium pyrophosphate. Precipitated labeled DNA was collected on glass fiber filter plates that had been pre-wet with ice cold 1 M HCl, 100 mM sodium pyrophosphate. The plates were washed with the HCl solution followed by ice cold 90% ethanol and then dried and counted in a liquid scintillation counter. The calculated IC50 is the concentration needed to inhibit 50% of the DNA polymerase activity in the presence of all four dNTP substrates. In addition, percent inhibition values are calculated as the percent reduction in the activity of a DMSO (diluent) control.

[3] = target: T3, E. coli pol IIIE (Escherichia coli, UniProt P10443); test: DNA polymerase assay, E. coli pol IIIE; type: biochemical; conditions: 80 μg/mL (190-260 μM) final concentration; all four dNTPs
T3 construct: purchased Enzyco, Denver, Colo
Description: as §1

[4] = system: Bacillus subtilis strain BD54; test: Inhibition of bacterial growth (MIC), Bs; type: cell-based; conditions: 16 to 18 hours, 37° C.
Description: (§2) Each compound was assayed against a panel of a strain of Bacillus subtilis, of strains of antibiotic-resistant and sensitive Enterococcus and Staphylococcus species, and of a strain of the Gram-negative bacterium Escherichia coli. Compounds were dissolved in DMSO at 100× the desired highest concentration and added to one well of a 96-well microassay plate. Two-fold serial drug dilutions were made across the plate in DMSO to yield 11 concentrations (usually 80-0.078 μg/mL) plus an untreated control. Drugs were then transferred to fresh plates using 1.5 μL per well. Log phase cultures were diluted to yield a concentration of 1×10^5 colony forming units/mL in either LB or BHI medium and transferred to the plates containing drug for a final volume of 150 μL. Each well, including the DMSO controls, contained a final concentration of 1% DMSO. Plates were incubated with shaking at 37° C. for 16 to 18 hours. Cell growth was determined by measuring optical density (570 nm, 1 cm path length) in a microplate reader. MIC (minimum inhibitory concentration) is equivalent to the lowest concentration at which growth is not observed. The bacterial strains and MIC determinations have been well characterized and are described elsewhere (Tarantino et al., Antimicrob. Agents Chemother., 43: 1982-1987 (1999); Daly et al., Antimicrob. Agents Chemother., 44: 2217-2221 (2000)).

[5] = system: Staphylococcus aureus strain IP 8; test: Inhibition of bacterial growth (MIC), Sa; type: cell-based; conditions: 16 to 18 hours, 37° C.
Description: as §2

[6] = system: S. aureus Smith strain; test: Inhibition of bacterial growth (MIC), Sm; type: cell-based, Staphylococcus aureus; conditions: 16 to 18 hours, 37° C.
Description: as §2

[7] = system: methicillin-resistant S. aureus strain 1094; test: Inhibition of bacterial growth (MIC), MRSA; type: cell-based, Staphylococcus aureus; conditions: 16 to 18 hours, 37° C.
Description: as §2

[8] = system: Enterococcus faecalis strain 29212; test: Inhibition of bacterial growth (MIC), Efcl; type: cell-based; conditions: 16 to 18 hours, 37° C.
Description: as §2

[9] = system: E. faecium clinical isolate; test: Inhibition of bacterial growth (MIC), Efcm; type: cell-based; conditions: 16 to 18 hours, 37° C.
Description: as §2

[10] = system: vancomycin-resistant Enterococcus strain B42762; test: Inhibition of bacterial growth (MIC), VRE; type: cell-based; conditions: 16 to 18 hours, 37° C.
Description: as §2

[11] = system: Escherichia coli strain J53; test: Inhibition of bacterial growth (MIC), Ec; type: cell-based; conditions: 16 to 18 hours, 37° C.
Description: as §2

T1 sequence (P13267 whole entry): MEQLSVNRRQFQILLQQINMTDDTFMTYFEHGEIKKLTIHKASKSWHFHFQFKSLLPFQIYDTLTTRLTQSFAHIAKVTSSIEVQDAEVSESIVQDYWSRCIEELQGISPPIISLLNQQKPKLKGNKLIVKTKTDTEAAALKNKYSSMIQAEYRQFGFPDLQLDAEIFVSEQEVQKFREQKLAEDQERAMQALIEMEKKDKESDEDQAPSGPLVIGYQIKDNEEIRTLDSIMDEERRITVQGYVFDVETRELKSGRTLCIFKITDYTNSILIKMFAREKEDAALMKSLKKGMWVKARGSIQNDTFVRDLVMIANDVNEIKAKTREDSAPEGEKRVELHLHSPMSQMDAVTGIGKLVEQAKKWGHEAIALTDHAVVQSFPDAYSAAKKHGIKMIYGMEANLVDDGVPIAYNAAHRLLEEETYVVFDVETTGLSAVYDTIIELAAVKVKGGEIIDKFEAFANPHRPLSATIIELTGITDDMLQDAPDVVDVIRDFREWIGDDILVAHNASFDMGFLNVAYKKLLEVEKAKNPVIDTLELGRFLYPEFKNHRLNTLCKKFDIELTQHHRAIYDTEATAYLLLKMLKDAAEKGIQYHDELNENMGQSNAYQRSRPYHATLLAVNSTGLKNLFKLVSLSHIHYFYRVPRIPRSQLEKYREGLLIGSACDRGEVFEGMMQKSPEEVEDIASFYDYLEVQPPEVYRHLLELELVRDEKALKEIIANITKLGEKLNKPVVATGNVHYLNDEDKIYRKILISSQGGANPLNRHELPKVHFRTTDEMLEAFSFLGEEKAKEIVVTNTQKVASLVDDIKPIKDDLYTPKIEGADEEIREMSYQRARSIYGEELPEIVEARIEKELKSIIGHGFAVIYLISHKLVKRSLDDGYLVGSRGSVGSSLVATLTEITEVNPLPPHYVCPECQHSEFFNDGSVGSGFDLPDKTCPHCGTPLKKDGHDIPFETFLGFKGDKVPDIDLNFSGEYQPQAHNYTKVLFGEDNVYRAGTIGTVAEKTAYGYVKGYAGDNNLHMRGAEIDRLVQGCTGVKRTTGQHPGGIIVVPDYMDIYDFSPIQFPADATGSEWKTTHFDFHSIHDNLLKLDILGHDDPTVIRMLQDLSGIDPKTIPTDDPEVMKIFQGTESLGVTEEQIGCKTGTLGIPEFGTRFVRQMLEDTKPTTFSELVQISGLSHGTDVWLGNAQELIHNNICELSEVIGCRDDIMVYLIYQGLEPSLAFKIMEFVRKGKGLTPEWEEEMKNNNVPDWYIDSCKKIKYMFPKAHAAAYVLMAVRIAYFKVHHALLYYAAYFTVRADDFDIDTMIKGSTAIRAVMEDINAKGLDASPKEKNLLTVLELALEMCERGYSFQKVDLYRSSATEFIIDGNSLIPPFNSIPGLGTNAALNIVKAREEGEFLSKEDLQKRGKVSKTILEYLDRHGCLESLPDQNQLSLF
T2 sequence (O34623 whole entry): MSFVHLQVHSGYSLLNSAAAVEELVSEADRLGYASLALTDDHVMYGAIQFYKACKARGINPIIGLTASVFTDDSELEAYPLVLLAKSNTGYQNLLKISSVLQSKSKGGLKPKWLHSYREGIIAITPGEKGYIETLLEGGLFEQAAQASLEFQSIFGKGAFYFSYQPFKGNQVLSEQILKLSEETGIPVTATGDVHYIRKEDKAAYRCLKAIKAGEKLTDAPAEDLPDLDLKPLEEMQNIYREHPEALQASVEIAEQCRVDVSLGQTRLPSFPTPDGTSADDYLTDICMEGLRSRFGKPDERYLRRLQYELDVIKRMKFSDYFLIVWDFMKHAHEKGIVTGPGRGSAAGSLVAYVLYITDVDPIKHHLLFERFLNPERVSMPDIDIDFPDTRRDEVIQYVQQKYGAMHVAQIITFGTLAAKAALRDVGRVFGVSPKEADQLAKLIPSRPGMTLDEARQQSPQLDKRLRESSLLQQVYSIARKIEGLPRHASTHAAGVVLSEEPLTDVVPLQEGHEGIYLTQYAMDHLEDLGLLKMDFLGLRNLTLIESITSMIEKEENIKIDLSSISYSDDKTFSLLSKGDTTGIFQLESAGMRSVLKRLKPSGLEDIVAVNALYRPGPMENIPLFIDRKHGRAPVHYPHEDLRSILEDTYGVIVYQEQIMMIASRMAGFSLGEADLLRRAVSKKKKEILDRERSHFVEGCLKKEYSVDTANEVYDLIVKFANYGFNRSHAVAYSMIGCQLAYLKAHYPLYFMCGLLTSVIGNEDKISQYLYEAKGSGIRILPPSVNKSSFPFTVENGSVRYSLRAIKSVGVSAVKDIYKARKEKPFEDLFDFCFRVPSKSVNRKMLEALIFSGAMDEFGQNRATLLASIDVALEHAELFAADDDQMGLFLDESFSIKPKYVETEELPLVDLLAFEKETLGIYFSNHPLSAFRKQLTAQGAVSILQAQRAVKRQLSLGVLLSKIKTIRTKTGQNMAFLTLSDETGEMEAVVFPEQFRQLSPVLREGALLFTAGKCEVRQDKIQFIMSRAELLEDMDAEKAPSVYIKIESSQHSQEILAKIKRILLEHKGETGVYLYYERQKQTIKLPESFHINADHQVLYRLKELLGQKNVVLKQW
T3 sequence (P10443 whole entry): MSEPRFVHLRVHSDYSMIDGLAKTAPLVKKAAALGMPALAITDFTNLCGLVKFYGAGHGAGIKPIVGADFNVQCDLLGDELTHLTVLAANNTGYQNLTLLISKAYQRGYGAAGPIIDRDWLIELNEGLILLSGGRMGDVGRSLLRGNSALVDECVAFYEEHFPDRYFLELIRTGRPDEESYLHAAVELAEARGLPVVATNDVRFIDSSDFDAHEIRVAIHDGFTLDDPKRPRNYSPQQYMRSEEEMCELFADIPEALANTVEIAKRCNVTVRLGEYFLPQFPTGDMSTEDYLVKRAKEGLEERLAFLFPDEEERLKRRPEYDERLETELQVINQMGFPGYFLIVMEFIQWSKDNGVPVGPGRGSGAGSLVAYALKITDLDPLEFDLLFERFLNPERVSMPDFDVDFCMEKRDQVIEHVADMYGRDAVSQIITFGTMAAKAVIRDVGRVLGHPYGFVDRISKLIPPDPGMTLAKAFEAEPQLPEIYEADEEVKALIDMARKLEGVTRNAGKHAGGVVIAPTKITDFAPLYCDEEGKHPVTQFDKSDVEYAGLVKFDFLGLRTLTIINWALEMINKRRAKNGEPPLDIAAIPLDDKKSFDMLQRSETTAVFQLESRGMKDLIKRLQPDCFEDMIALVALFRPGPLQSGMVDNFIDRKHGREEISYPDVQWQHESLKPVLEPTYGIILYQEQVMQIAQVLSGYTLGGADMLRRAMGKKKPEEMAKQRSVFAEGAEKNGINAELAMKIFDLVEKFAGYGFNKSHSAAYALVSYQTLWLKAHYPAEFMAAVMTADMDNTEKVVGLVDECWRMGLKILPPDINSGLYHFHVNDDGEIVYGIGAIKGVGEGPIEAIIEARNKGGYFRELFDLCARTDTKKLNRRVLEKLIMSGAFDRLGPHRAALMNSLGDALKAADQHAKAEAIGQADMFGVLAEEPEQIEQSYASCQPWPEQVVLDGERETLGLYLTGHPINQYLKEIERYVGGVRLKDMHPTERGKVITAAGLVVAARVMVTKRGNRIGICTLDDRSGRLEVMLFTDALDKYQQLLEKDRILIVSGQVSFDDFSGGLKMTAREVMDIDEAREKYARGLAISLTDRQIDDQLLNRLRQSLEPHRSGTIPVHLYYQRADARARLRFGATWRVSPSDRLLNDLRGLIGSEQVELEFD

SMILES | Percent Enzymatic Inhibition B. subtilis pol IIIC [1] | Percent Enzymatic Inhibition B. subtilis pol IIIE [2] | Percent Enzymatic Inhibition E. coli pol IIIE [3] | Minimum Inhibitory Concentration for Bacterial Growth, Bs [4] [µg/mL] | Minimum Inhibitory Concentration for Bacterial Growth, Sa [5] [µg/mL] | Minimum Inhibitory Concentration for Bacterial Growth, Sm [6] [µg/mL] | Minimum Inhibitory Concentration for Bacterial Growth, MRSA [7] [µg/mL] | Minimum Inhibitory Concentration for Bacterial Growth, Efcl [8] [µg/mL] | Minimum Inhibitory Concentration for Bacterial Growth, Efcm [9] [µg/mL] | Minimum Inhibitory Concentration for Bacterial Growth, VRE [10] [µg/mL] | Minimum Inhibitory Concentration for Bacterial Growth, Ec [11] [µg/mL]
O=C(NN=Cc1cc(Br)ccc1O)c1cc(-c2ccccc2)n[nH]1 [Compound 6] | 11.3% | 7.7% | 9.0% | >80 | 10 | >80 | 40 | 8 | 10 | 8 | >80
COc1cccc(C=NNC(=O)c2cc(-c3ccc(C)cc3)n[nH]2)c1O [Compound 8] | 19.7% |  |  | >80 | >80 | >80 | >80 | >80 | >80 | >80 | >80
O=C(NN=Cc1ccccc1O)c1cc(-c2ccccc2)n[nH]1 [Compound 9] |  |  |  | >80 | >80 | >80 | >80 | >80 | >80 | >80 | >80
COc1cccc(-c2cc(C(=O)NN=Cc3cccc(O)c3)[nH]n2)c1 [Compound 10] | Inactive | 9.6% | Inactive | >80 | >80 | >80 | >80 | >80 | >80 | >80 | >80
Cc1ccc(C=NNC(=O)c2cc(-c3ccccc3)n[nH]2)cc1 [Compound 11] | 1.3% | 16.7% | Inactive | >80 | >80 | >80 | >80 | >80 | >80 | >80 | >80
CCCCc1cc(C=NNC(=O)c2cc(-c3ccccc3)n[nH]2)cc(CCCC)c1O [Compound 12] | Inactive | 7.6% | 7.2% | >80 | >80 | >80 | >80 | >80 | >80 | >80 | >80
COc1ccc(-c2cc(C(=O)NN=Cc3ccccc3)[nH]n2)cc1 [Compound 13] | 2.9% | Inactive | 3.4% | >80 | >80 | >80 | >80 | >80 | >80 | >80 | >80
COc1cccc(-c2cc(C(=O)NN=Cc3ccc(O)cc3)[nH]n2)c1 [Compound 14] | 0.5% | 18.1% | Inactive | >80 | 80 | 80 | 80 | >80 | >80 | 80 | >80
CCN1C(=O)C(=NNC(=O)c2cc(-c3ccccc3)n[nH]2)c2ccccc21 [Compound 20] | 0.2% | 0.5% | Inactive |  |  |  |  |  |  |  | 
CCN1C(=O)C(=NNC(=O)c2cc(-c3cccc(-c4ccccc4)c3)n[nH]2)c2ccccc21 [Compound 21] |  |  |  | >80 | >80 | >80 | >80 | >80 | >80 | >80 | >80
